Some targets named below: INSR (Homo sapiens, UniProt P06213); NLK (Homo sapiens, UniProt Q9UBE8); HUNK (Homo sapiens, UniProt P57058); EGFR(S752-I759del) (Homo sapiens, UniProt P00533, DEL752-759); LYN (Homo sapiens, UniProt P07948); FES (Homo sapiens, UniProt P07332); PRKD1 (Homo sapiens, UniProt Q15139); PIK3CA (Homo sapiens, UniProt P42336); PIP5K1A (Homo sapiens, UniProt Q99755); PDGFRB (Homo sapiens, UniProt P09619); PIK3CA(E545A) (Homo sapiens, UniProt P42336, E545A); MAP3K1 (Homo sapiens, UniProt Q13233); PIK3CA(E545K) (Homo sapiens, UniProt P42336, E545K); FLT3(D835Y) (Homo sapiens, UniProt P36888, D835Y); CSF1R (Homo sapiens, UniProt P07333).

Holding throughout (assay): biochemical
Holding throughout (design): KINOMEscan active-site-directed competition binding panel, 468 kinases, percent of DMSO control at 1 uM
Details in all cases: KINOMEscan binding, percent of DMSO control; read-out: Ctrl%

The target in another assay is T1, PAK7 (Homo sapiens, UniProt Q9P286).
T1 construct: gene PAK5

Another assay concerns the target T2, PCTK2 (Homo sapiens, UniProt Q00537).
T2 construct: gene CDK17

Assay [1] has as its target T3, RSK1(Kin.Dom.1-N-terminal) (Homo sapiens, UniProt Q15418).
T3 construct: gene RPS6KA1; Kin.Dom.1-N-terminal

In the next assay the target is T4, CDK11 (Homo sapiens, UniProt Q9BWU1).
T4 construct: gene CDK19
T4 sequence (Q9BWU1 whole entry): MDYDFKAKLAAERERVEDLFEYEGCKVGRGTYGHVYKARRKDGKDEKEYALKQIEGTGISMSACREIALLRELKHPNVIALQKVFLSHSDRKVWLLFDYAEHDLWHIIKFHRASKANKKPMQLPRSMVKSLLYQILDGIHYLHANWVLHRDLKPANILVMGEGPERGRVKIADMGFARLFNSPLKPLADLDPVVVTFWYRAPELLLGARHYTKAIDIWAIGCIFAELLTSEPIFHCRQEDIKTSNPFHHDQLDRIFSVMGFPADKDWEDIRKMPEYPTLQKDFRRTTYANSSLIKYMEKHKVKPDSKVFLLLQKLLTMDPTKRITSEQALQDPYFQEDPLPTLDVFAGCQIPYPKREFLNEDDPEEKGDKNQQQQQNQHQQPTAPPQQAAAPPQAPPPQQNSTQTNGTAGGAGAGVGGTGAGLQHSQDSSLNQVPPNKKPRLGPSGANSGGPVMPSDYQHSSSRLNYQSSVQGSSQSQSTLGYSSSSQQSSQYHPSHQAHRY

The target in the next assay is T5, ARK5 (Homo sapiens, UniProt O60285).
T5 construct: gene NUAK1

The target of the next assay is T6, CDC2L5 (Homo sapiens, UniProt Q14004).
T6 construct: gene CDK13

The next assay addresses T7, NIM1 (Homo sapiens, UniProt Q8IY84).
T7 construct: gene NIM1K

For a further assay, the target named is T8, MEK6 (Homo sapiens, UniProt P52564).
T8 construct: gene MAP2K6

For a further assay, the target named is T9, p38-gamma (Homo sapiens, UniProt P53778).
T9 construct: gene MAPK12

SMILES strings stand for the structures.

FES, sequence (P07332 whole entry): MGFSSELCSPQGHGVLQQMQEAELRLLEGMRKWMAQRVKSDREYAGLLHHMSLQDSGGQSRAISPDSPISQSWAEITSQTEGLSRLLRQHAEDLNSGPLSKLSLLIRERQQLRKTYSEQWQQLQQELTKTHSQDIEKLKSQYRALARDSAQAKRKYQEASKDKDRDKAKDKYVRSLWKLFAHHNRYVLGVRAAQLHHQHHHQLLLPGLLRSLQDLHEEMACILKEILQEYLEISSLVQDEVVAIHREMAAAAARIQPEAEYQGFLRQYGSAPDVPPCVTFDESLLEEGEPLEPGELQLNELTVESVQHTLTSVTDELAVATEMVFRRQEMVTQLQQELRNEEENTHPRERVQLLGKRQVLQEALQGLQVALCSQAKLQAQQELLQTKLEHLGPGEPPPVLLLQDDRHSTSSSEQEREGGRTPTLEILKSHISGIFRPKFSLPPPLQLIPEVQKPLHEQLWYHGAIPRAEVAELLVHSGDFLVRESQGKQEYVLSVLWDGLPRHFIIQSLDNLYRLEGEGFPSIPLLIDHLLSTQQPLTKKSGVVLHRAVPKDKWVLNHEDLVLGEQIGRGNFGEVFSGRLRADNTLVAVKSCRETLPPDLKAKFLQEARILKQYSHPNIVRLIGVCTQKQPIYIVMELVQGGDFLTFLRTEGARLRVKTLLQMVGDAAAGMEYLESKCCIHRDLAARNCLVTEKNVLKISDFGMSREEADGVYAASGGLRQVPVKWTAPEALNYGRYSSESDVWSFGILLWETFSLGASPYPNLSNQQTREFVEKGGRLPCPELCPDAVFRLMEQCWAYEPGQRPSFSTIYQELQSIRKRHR
T2 sequence (Q00537 whole entry): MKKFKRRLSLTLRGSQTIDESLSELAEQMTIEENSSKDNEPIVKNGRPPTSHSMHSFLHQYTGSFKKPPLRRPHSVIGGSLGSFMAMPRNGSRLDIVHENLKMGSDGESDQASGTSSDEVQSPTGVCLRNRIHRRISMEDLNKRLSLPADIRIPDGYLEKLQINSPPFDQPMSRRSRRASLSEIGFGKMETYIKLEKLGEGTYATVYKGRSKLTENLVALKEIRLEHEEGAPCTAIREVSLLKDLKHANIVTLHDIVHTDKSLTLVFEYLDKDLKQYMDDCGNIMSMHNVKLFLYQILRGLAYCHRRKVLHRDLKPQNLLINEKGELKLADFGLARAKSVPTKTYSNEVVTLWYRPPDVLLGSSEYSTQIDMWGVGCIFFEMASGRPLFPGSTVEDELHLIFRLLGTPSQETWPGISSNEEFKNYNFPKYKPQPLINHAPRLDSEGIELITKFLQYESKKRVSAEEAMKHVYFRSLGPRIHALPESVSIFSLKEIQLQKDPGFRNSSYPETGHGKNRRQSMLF
PIP5K1A, sequence (Q99755 whole entry): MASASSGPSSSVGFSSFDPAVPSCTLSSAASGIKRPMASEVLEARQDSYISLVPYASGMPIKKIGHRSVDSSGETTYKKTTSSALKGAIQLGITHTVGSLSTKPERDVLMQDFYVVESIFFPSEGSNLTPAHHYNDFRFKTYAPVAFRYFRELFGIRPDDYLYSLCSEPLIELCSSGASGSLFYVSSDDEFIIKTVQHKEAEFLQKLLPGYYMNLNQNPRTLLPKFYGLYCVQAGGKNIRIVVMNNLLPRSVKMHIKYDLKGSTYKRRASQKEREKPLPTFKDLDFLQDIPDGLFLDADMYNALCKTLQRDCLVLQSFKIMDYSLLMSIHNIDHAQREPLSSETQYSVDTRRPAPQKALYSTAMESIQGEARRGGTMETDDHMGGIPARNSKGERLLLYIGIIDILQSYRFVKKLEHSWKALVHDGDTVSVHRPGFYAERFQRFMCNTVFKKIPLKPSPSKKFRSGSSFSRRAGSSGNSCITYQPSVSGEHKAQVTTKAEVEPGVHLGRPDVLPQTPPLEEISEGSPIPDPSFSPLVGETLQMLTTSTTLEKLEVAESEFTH
LYN, sequence (P07948 whole entry): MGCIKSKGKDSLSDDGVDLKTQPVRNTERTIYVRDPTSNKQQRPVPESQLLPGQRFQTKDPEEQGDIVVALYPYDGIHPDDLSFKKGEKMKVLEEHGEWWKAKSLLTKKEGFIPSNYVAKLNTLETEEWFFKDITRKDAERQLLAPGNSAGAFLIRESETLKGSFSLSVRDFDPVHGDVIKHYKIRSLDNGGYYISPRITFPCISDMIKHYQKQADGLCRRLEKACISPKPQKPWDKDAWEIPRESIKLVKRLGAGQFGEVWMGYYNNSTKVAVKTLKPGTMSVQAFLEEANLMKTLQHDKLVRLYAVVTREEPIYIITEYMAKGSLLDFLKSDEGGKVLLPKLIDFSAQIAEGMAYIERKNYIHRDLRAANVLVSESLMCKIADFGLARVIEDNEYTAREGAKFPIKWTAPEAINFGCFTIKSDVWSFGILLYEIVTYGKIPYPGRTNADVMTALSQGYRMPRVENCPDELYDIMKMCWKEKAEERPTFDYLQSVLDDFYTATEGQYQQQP
PIK3CA(E545A), sequence (P42336 whole entry E545A): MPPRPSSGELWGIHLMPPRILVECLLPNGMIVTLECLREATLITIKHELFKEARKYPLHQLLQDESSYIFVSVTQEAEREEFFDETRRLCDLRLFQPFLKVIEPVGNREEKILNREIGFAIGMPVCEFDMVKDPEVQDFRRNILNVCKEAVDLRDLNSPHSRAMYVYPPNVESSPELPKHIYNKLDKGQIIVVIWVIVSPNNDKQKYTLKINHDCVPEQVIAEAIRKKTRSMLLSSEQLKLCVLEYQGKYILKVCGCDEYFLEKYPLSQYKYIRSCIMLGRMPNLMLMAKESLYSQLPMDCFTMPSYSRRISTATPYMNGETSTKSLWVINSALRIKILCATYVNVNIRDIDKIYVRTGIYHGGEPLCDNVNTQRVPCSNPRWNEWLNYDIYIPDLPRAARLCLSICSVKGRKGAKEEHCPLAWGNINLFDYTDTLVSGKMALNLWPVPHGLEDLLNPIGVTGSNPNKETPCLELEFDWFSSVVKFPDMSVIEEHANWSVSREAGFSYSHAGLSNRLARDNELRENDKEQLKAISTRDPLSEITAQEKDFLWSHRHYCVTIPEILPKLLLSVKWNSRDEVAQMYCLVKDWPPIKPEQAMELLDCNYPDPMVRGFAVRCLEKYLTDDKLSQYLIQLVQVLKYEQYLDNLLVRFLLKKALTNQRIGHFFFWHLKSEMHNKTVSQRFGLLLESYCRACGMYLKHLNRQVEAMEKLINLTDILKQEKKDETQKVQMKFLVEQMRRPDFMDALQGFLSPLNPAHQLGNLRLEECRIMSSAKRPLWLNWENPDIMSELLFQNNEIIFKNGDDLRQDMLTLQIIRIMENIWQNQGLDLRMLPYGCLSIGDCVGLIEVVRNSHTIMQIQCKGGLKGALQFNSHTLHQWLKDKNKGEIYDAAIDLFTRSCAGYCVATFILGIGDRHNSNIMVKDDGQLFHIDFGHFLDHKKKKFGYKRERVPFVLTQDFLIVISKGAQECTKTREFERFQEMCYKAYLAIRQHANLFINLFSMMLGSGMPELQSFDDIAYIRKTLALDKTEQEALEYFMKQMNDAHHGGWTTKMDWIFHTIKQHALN
T3 sequence (Q15418 whole entry): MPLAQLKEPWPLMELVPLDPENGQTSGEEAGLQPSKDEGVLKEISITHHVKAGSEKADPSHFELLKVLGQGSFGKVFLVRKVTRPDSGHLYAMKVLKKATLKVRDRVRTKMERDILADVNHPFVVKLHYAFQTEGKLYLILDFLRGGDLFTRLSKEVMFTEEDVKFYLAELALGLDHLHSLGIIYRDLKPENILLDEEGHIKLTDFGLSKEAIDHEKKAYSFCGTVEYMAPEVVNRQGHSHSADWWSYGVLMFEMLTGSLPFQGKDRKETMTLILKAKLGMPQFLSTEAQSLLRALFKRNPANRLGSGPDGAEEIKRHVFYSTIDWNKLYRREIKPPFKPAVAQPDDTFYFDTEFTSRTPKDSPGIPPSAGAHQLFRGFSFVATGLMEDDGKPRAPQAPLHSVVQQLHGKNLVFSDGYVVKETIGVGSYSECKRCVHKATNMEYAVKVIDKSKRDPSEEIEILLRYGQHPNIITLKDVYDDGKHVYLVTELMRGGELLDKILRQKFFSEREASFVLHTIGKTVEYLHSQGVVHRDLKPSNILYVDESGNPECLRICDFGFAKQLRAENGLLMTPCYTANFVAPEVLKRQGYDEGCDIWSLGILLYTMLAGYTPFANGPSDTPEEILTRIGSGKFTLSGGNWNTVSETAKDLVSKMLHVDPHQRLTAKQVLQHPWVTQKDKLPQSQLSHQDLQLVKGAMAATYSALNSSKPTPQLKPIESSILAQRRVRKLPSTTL
PIK3CA(E545K), sequence (P42336 whole entry E545K): as the sequence (P42336 whole entry E545A) above, with A545K counted along it
PIK3CA, sequence (P42336 whole entry): as the sequence (P42336 whole entry E545A) above, with A545E counted along it

On to `Cc1ccc(NC(=O)c2cccc(C(F)(F)F)c2)cc1Nc1cc(-c2cccnc2)nc2[nH]ccc12` [HZX-02-059], for which the remaining binding at 1 µM at INSR was determined as 100%; on NLK, 100%; at HUNK, 91%; at EGFR(S752-I759del), 100%; on LYN it was 17%; at FES it was 100%. Also, the remaining binding at 1 µM on PAK7 turned out to be 65%; at PRKD1 it was 96%; on PCTK2 it was 100%; on PIK3CA, 100%; at PIP5K1A, 79%; on PDGFRB, 3.3%. The remaining binding at 1 µM came to 88% on PIK3CA(E545A); 72% in assay [1]; 79% at CDK11; 56% at MAP3K1; 100% on ARK5; 63% at PIK3CA(E545K). For the same molecule, the remaining binding at 1 µM at CDC2L5 was 100%; on FLT3(D835Y), 100%; on NIM1, 99%; on CSF1R, 6.1%; on MEK6, 88%; on p38-gamma, 92%.
